Measurements as given in patent US20080161348A1, “PTX3-GENE EXPRESSION INHIBITOR” (KOWA CO., LTD., priority 2002, published 2008).

How the values were obtained:
PTX3 gene [1] = experiment: PTX3 gene expression analysis by GeneChip array in HUVEC; format: cell-based, human; conditions: 8 hours after addition, control 1113.0
Method: (§1) Two days after inoculation of normal human umbilical vein endothelial cells (HUVEC) or human coronary artery smooth muscle cells (HCASMC) at 3×10^5 cells/10 cm dish, pitavastatin calcium or atorvastatin calcium was added to 1.1 μmol/L and 6.6 μmol/L, respectively. Dimethyl sulfoxide, a solvent for both of the active ingredients, was added to a control (final concentration: 0.0066 v/v %). Eight hours after the addition, total RNA was extracted with “ISOGEN” (trade mark, product of NIPPON GENE CO., LTD.). The following procedures was conducted in accordance with the procedures manual of Affymetrix. Inc. Described specifically, mRNA was isolated from the above-obtained total RNA, and based on the mRNA, cDNA was synthesized. Further, biotin-labeled cRNA was synthesized by in vitro transcription. Subsequent to purification, the biotin-labeled cRNA was subjected to fragmentation by heat treatment to prepare fragmented cRNA for use in a gene expression analysis.
(§2) Gene expression analysis method: The fragmented CRNA was poured into “Hugene Human FL Array” (trade name, product of Affymetrix, Inc.), and hybridization was conducted at 45° C. for 16 hours. […] The information was analyzed by “GENECHIP SOFTWARE” (trade name, product of Affymetrix, Inc.) to compare expression levels.

PTX3 gene [2] = experiment: PTX3 gene expression analysis by GeneChip array in HCASMC; format: cell-based, human; conditions: 8 hours after addition, control 1028.3
Method: as §1, §2

PTX3 gene [3] = experiment: PTX3 gene expression by RT-PCR and agarose gel electrophoresis in HUVEC; format: cell-based, human; conditions: both 8 hours later and 24 hours later
Method: (§3) Two days after inoculation of HUVEC at 3×10^5 cells/10 cm dish, pitavastatin calcium or atorvastatin calcium was added to 1.1 μmol/L and 6.6 μmol/L, respectively. To ascertain possible concentration dependency of PTX3 gene expression suppressing effect of pitavastatin, pitavastatin calcium was also added to 1 μmol/L and 10 μmol/L upon elapsed time of 2 days after inoculation of HUCEC or HCASMC at 3×10^5 cells/10 cm dish. To controls under the respective conditions, dimethyl sulfoxide, a solvent for both of the active ingredients, was added (final concentration: 0.0066 v/v %) Eight or 24 hours after the addition, total RNA was extracted with “ISOGEN” (trade mark, product of NIPPON GENE CO., LTD.). The total RNA was subjected to RT-PCR in a manner known per se in the art, and amplified DNA fragments were subjected to agarose gel electrophoresis to compare expression levels. • Reaction conditions and the like for PT-PCR:
(§4) PT reaction: Conducted using “RNA PCR Core Kit” (trade name, product of Roche Molecular Systems, Inc.).
PCR: Using “Expanded™ High Fidelity PCR System” (trade name, manufactured of Boehringer Mannheim AG), thermal cycling was conducted through 25 cycles according to the following schemes: 95° C. for 1 minute—57° C. for 1 minute—72° C. for 1 minute. Incidentally, as PCR primers, the followings were used in sets: SEQ ID No:1 (Forward) and SEQ ID No: 2 (Reverse) in the case of PTX3; base SEQ ID No:3 (Forward) and SEQ ID No: 4 (Reverse) in the case of GAPDH.

PTX3 gene [4] = experiment: PTX3 gene expression by RT-PCR and agarose gel electrophoresis in HCASMC; format: cell-based, human; conditions: 1 μmol/L and 10 μmol/L, both 8 hours later and 24 hours later
Method: as §3, §4
PCR: Using “Expanded™ High Fidelity PCR System” (trade name, manufactured of Boehringer Mannheim AG), thermal cycling was conducted through 25 cycles according to the following schemes: 95° C. for 1 minute—57° C. for 1 minute—72° C. for 1 minute. […]

PTX3 gene [5] = conditions: constant expression in synovial cells; Clin. Exp. Immunol., 119(1), 196-202 (2000); cited from earlier work

CC(C)c1c(C(=O)Nc2ccccc2)c(-c2ccccc2)c(-c2ccc(F)cc2)n1CC[C@@H](O)C[C@@H](O)CC(=O)O [atorvastatin calcium, (3R,5R)-7-[2-(4-fluorophenyl)-5-isopropyl-3-phenyl-4-phenylcarbamonyl-1H-pyrrol-1-yl]-3,5-dihydroxyheptanoic acid]
expression of PTX3 gene in HUVEC (PTX3 gene [1]; 6.6 μmol/L): 39.2
expression of PTX3 gene in HCASMC (PTX3 gene [2]; 6.6 μmol/L): 432.1
expression of PTX3 gene in HUVEC compared with the control (RT-PCR) (PTX3 gene [3]; 6.6 μmol/L): suppressed

O=C(O)C[C@H](O)C[C@H](O)/C=C/c1c(C2CC2)nc2ccccc2c1-c1ccc(F)cc1 [pitavastatin calcium, (3R,5S, 6 E)-7-[2-cyclopropyl-4-(4-fluorophenyl)-3-quinolyl]-3,5-dihydroxy-6-heptenoic acid]
expression of PTX3 gene in HUVEC (PTX3 gene [1]; 1.1 μmol/L): 32.7
expression of PTX3 gene in HCASMC (PTX3 gene [2]; 1.1 μmol/L): 452.5
concentration dependency of PTX3 gene expression suppression in HUVEC (RT-PCR) (PTX3 gene [3]; 1 μmol/L and 10 μmol/L): concentration-dependently suppressed
expression of PTX3 gene in HUVEC compared with the control (RT-PCR) (PTX3 gene [3]; 1.1 μmol/L): suppressed
concentration dependency of PTX3 gene expression suppression in HCASMC (RT-PCR) (PTX3 gene [4]): concentration-dependently suppressed

TGF-β
expression of PTX3 gene in synovial cells of a rheumatoid arthritis patient (PTX3 gene [5]): suppressed

IFN-γ: inteferon-γ (IFN-γ), known from literature to suppress PTX3 gene expression
expression of PTX3 gene in synovial cells of a rheumatoid arthritis patient (PTX3 gene [5]): suppressed
